Test results published in patent US20060252807A1, “Novel ortho-terphenyl inhibitors of p38 kinase and methods of treating inflammatory disorders” (Kalypsys, Inc., priority 2005, published 2006).

target: T1, active p38 alpha enzyme (Upstate Biotechnology) (Homo sapiens, UniProt Q16539); assay: p38α biochemical assay (ATP turnover, luminescent detection, Cambrex PKlight); settings: p38α biochemical assay, Table 1 Biological Activity
T1 construct: purchased Upstate Biotechnology
Outline: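 p38α + MapkapK2 (whole protein substrate) + 1.4 uM ATP final; Tris/MOPS buffer with MgCl2, CaCl2, EGTA, EDTA, glycerol, β-ME, BSA; 2 h at 30C; luminescent detection of remaining ATP.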

T1 sequence (Q16539 whole entry): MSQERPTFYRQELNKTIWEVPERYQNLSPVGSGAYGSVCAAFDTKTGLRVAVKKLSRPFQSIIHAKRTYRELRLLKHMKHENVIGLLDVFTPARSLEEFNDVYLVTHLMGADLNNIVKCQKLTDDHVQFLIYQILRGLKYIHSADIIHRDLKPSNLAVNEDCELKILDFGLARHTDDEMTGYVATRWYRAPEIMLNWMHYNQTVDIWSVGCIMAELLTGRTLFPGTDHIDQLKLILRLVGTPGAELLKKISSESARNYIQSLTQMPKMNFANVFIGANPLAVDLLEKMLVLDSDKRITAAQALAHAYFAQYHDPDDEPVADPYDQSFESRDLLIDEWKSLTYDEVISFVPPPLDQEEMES

Structure (SMILES)	IC50
CC(C)NC(=O)c1csc(-c2oc(CNC(=O)C(C)NC(=O)OC(C)(C)C)nc2-c2ccc(F)cc2)n1 (stereo not drawn) [Example 248]	> 1000 nM
COc1ccc(/C=C/C(=O)NCc2nc(-c3ccc(F)cc3)c(-c3nc(C(=O)NC(C)C)cs3)o2)cc1O [Example 262]	≤ 1000 nM
CC(C)NC(=O)c1csc(-c2oc(CN3CCN(C(=O)c4cc(F)c(F)cc4[N+](=O)[O-])CC3)nc2-c2ccc(F)cc2)n1 [Example 515]	≤ 1000 nM
CCNC(=O)c1csc(-c2c(-c3ccc(F)cc3)n[nH]c2C)n1 [Example 72, 2-|3-(4-Fluoro-phenyl)-5-methyl-1H-pyrazol-4-yl|-thiazole-4-carboxylic acid ethylamide]	≤ 1000 nM
CC(C)NC(=O)c1csc(-c2oc(CNC(=O)c3cccc(Br)c3)nc2-c2ccc(F)cc2)n1 [Example 268]	> 1000 nM
CC(C)NC(=O)c1csc(-c2oc(CN3CCN(C(=O)c4ccccc4Cc4ccccc4)CC3)nc2-c2ccc(F)cc2)n1 [Example 524]	≤ 1000 nM
CC(C)NC(=O)c1csc(-c2oc(CN3CCN(C(=O)c4ccccc4Cl)CC3)nc2-c2ccc(F)cc2)n1 [Example 388]	> 1000 nM
Cc1cccc([N+](=O)[O-])c1C(=O)NCc1onc(-c2ccc(F)cc2)c1-c1nc(C(=O)NC(C)C)cs1 [Example 695]	> 1000 nM
CC(C)NC(=O)c1csc(-c2oc(CNC(=O)c3cc([N+](=O)[O-])ccc3O)nc2-c2ccc(F)cc2)n1 [Example 234]	≤ 1000 nM
CC(C)NC(=O)c1csc(-c2c(-c3ccc(F)cc3)noc2CNC(=O)c2ccnc(Cl)c2)n1 [Example 629]	> 1000 nM
CC(C)NC(=O)c1csc(-c2oc(CN3CCN(C(=O)c4cnc[nH]4)CC3)nc2-c2ccc(F)cc2)n1 [Example 342]	≤ 1000 nM
CCNC(=O)c1csc(-c2c(-c3ccc(F)cc3)n[nH]c2C2CCNCC2)n1 [Example 63, 2-|3-(4-Fluoro-phenyl)-5-piperidin-4-yl-1H-pyrazol-4-yl|-thiazole-4-carboxylic acid ethylamide]	≤ 1000 nM
CCC(C)NC(=O)n1ccc(-c2c(-c3ccc(Cl)cc3)noc2C)n1 (stereo not drawn) [Example 4, 3-|3-(4-Chloro-phenyl)-5-methyl-isoxazol-4-yl|-pyrazole-1-carboxylic acid sec-butylamide]	≤ 1000 nM
CCCc1ccc(C(=O)NCc2onc(-c3ccc(F)cc3)c2-c2nc(C(=O)NC(C)C)cs2)cc1 [Example 651]	> 1000 nM
CC(C)NC(=O)c1csc(-c2oc(CNC(=O)c3csc4ccccc34)nc2-c2ccc(F)cc2)n1 [Example 206]	> 1000 nM
CC(C)NC(=O)c1csc(-c2c(-c3ccc(F)cc3)noc2CNC(=O)CCc2cccc(Br)c2)n1 [Example 785]	> 1000 nM
Cc1cc(C)cc(C(=O)NCc2onc(-c3ccc(F)cc3)c2-c2nc(C(=O)NC(C)C)cs2)c1 [Example 613]	> 1000 nM
CC(C)NC(=O)c1csc(-c2oc(CN3CCN(C(=O)Cc4ccc5c(c4)OCO5)CC3)nc2-c2ccc(F)cc2)n1 [Example 454]	> 1000 nM
CC(=O)Nc1cccc(C(=O)N2CCN(Cc3nc(-c4ccc(F)cc4)c(-c4nc(C(=O)NC(C)C)cs4)o3)CC2)c1 [Example 448]	≤ 1000 nM
CC(C)NC(=O)c1csc(-c2oc(CN3CCN(C(=O)c4ccc(Cl)c(Br)c4)CC3)nc2-c2ccc(F)cc2)n1 [Example 558]	> 1000 nM
CCCCCCCC(=O)NCc1nc(-c2ccc(F)cc2)c(-c2nc(C(=O)NC(C)C)cs2)o1 [Example 128]	≤ 1000 nM
Cc1ccc([N+](=O)[O-])c(C(=O)NCc2onc(-c3ccc(F)cc3)c2-c2nc(C(=O)NC(C)C)cs2)c1 [Example 697]	≤ 1000 nM
CC(C)NC(=O)c1csc(-c2oc(CN3CCN(C(=O)c4cc(Cl)ccc4[N+](=O)[O-])CC3)nc2-c2ccc(F)cc2)n1 [Example 512]	> 1000 nM

same assay, conditions: p38α kinase; Table 1 Biological Activity

Structure (SMILES)	IC50
Cc1ccc(C(=O)N2CCC(c3[nH]nc(-c4ccc(F)cc4)c3-c3nc(C(=O)NC(C)C)cs3)CC2)cc1F [Example 863]	> 1000 nM
Cc1nc(-c2ccc(F)cc2)c(-c2nc(C(=O)N3CCN(c4ccc(C(F)(F)F)cn4)CC3)cs2)s1 [Example 1951]	> 1000 nM
Cc1nc(-c2ccc(F)cc2)c(-c2nc(C(=O)Nc3ccc(C(F)(F)F)cc3C(F)(F)F)cs2)s1 [Example 2024]	≤ 1000 nM
Cc1cccc(NCc2nc(-c3ccc(F)cc3)c(-c3nc(C(=O)NC(C)C)cs3)o2)c1 [Example 1308]	> 1000 nM
Cc1ccc([C@@H](C)NC(=O)c2csc(-c3sc(C)nc3-c3ccc(F)cc3)n2)cc1 [Example 1771]	> 1000 nM
CCN(CC)c1ccc(C(=O)N2CCC(c3[nH]nc(-c4ccc(F)cc4)c3-c3nc(C(=O)NC(C)C)cs3)CC2)cc1 [Example 974]	> 1000 nM
CC(C)NC(=O)c1csc(-c2c(-c3ccc(F)cc3)n[nH]c2C2CCN(C(=O)C3=CCCC3)CC2)n1 [Example 821]	> 1000 nM
Cc1nc(-c2ccc(F)cc2)c(-c2nc(C(=O)NCc3ccccc3F)cs2)s1 [Example 1760]	≤ 1000 nM
CC(C)NC(=O)c1csc(-c2oc(CN3CCc4ccccc4C3)nc2-c2ccc(F)cc2)n1 [Example 1224]	> 1000 nM
CC(C)NC(=O)c1csc(-c2c(-c3ccc(F)cc3)noc2CNCCCn2ccnc2)n1 [Example 1437]	> 1000 nM
COc1ccc(CNC(=O)c2csc(-c3c(-c4ccc(F)cc4)n[nH]c3C3CCNCC3)n2)cc1O [Example 2150]	≤ 1000 nM
COCCOCn1nc(-c2ccc(F)cc2)c(-c2nc(C=NOC)cs2)c1C (single isomer, unassigned) [Example 2186, 2-|3-(4-Fluoro-phenyl)-1-(2-methoxy-ethoxymethyl)-5-methyl-1H-pyrazol-4-yl|-thiazole-4-carbaldehyde O-methyl-oxime]	> 1000 nM
O=C(NCCc1ccccc1F)c1csc(-c2c(-c3ccc(F)cc3)n[nH]c2C2CCNCC2)n1 [Example 2105]	> 1000 nM
COc1ccc(Br)c(C(=O)N2CCC(c3[nH]nc(-c4ccc(F)cc4)c3-c3nc(C(=O)NC(C)C)cs3)CC2)c1 [Example 1030]	> 1000 nM
CCOC(=O)CC(C)NC(=O)c1csc(-c2sc(C)nc2-c2ccc(F)cc2)n1 (stereo not drawn) [Example 1766]	≤ 1000 nM
COc1ccncc1NCc1onc(-c2ccc(F)cc2)c1-c1nc(C(=O)NC(C)C)cs1 [Example 1650]	> 1000 nM
Cc1nc(-c2ccc(F)cc2)c(-c2nc(C(=O)N3CCC(C(N)=O)CC3)cs2)s1 [Example 1869]	> 1000 nM
Cc1ccnc(NCc2onc(-c3ccc(F)cc3)c2-c2nc(C(=O)NC(C)C)cs2)c1 [Example 1636]	> 1000 nM
Cc1nc(-c2ccc(F)cc2)c(-c2nc(C(=O)NCCCc3ccccc3)cs2)s1 [Example 1774]	> 1000 nM
CC(C)NC(=O)c1csc(-c2c(-c3ccc(F)cc3)noc2CNc2ccccc2C(=O)c2ccccc2)n1 [Example 1693]	> 1000 nM

Structure (SMILES)	IC50
CC(C)NC(=O)c1csc(-c2oc(CN3CCN(c4cccc(C(F)(F)F)c4)CC3)nc2-c2ccc(F)cc2)n1 [Example 1297]	> 1000 nM
CC(C)NC(=O)c1csc(-c2c(-c3ccc(F)cc3)n[nH]c2C2CCN(C(=O)c3cccc(Oc4ccccc4)c3)CC2)n1 [Example 1002]	> 1000 nM
C#CCN(Cc1ccc(Cl)cc1Cl)C(=O)c1csc(-c2sc(C)nc2-c2ccc(F)cc2)n1 [Example 1941]	> 1000 nM
COCCOCC(=O)N1CCC(c2[nH]nc(-c3ccc(F)cc3)c2-c2nc(C(=O)NC(C)C)cs2)CC1 [Example 2168, 2-(3-(4-Fluoro-phenyl)-5-{1-|2-(2-methoxy-ethoxy)-acetyl|-piperidin-4-yl}-1H-pyrazol-4-yl)-thiazole-4-carboxylic acid isopropylamide]	≤ 1000 nM
Cc1nc(-c2ccc(F)cc2)c(-c2nc(C(=O)NCCCN3CCOCC3)cs2)s1 [Example 1792]	≤ 1000 nM
O=C(NCc1ccc(F)cc1F)c1csc(-c2c(-c3ccc(F)cc3)n[nH]c2C2CCNCC2)n1 [Example 2111]	> 1000 nM
CC(C)NC(=O)c1csc(-c2c(-c3ccc(F)cc3)n[nH]c2C2CCN(C(=O)c3ccc(Cl)nc3)CC2)n1 [Example 866]	> 1000 nM
Cc1ccc([C@H](C)NCc2onc(-c3ccc(F)cc3)c2-c2nc(C(=O)NC(C)C)cs2)cc1 [Example 1446]	> 1000 nM
CC(C)NC(=O)c1csc(-c2oc(CNc3ccc(OC(F)(F)F)cc3)nc2-c2ccc(F)cc2)n1 [Example 1361]	> 1000 nM
CCN(Cc1ccccc1)Cc1onc(-c2ccc(F)cc2)c1-c1nc(C(=O)NC(C)C)cs1 [Example 1550]	> 1000 nM
CC(C)NC(=O)c1csc(-c2c(-c3ccc(F)cc3)n[nH]c2C2CCN(C(=O)c3cc(Cl)ccc3[N+](=O)[O-])CC2)n1 [Example 989]	> 1000 nM
CC(C)NC(=O)c1csc(-c2c(-c3ccc(F)cc3)c(=O)[nH]n2C2CCN(C(=O)OCc3ccccc3)CC2)n1 [Example 2183, 4-|4-(4-Fluoro-phenyl)-5-(4-isopropylcarbamoyl-thiazol-2-yl)-3-oxo-2,3-dihydro-pyrazol-1-yl|-piperidine-1-carboxylic acid benzyl ester]	> 1000 nM
Cc1ccc(NCc2nc(-c3ccc(F)cc3)c(-c3nc(C(=O)NC(C)C)cs3)o2)cc1 [Example 1309]	> 1000 nM
CC(C)NC(=O)c1csc(-c2oc(CNC3CCN(Cc4ccccc4)C3)nc2-c2ccc(F)cc2)n1 (stereo not drawn) [Example 1170]	≤ 1000 nM
CC(C)NC(=O)c1csc(-c2c(-c3ccc(F)cc3)noc2CBr)n1 [Example 1700]	> 1000 nM
C#CCNC(=O)c1csc(-c2sc(C)nc2-c2ccc(F)cc2)n1 [Example 1707]	≤ 1000 nM
COc1ccc(CNC(=O)c2csc(-c3c(-c4ccc(F)cc4)n[nH]c3C3CCNCC3)n2)cc1 [Example 2102]	≤ 1000 nM
Cc1nc(-c2ccc(F)cc2)c(-c2nc(C(=O)NN3CCN(C)CC3)cs2)s1 [Example 1749]	> 1000 nM
CC(C)NC(=O)c1csc(-c2c(-c3ccc(F)cc3)n[nH]c2C2CCN(C(=O)c3c(O)ccc4ccccc34)CC2)n1 [Example 957]	> 1000 nM
CC(C)NC(=O)c1csc(-c2c(-c3ccc(F)cc3)noc2CNCC(=O)c2ccccc2)n1 [Example 1491]	> 1000 nM
